Results published in patent publication US20080176932A1, “Pharmaceutical Compositions Containing Baicalein And Baicalin With Synergistic Effect In Tumor Treatment” (priority 2005, published 2008).
Read-outs that look alike come from different tables or passages of the source.

What was measured:
[1] = tested on: human liver cancer cell line HepG2; experiment: MTT growth inhibition, baicalein and baicalin single or combination; type: cell-based
From the text: The results of experiments with human liver cancer cell line HepG2 are illustrated in Table 1;

[2] = tested on: Human colon cancer cell line HCT116; experiment: as above; type: cell-based
From the text: Human colon cancer cell line HCT116—Table 2;

[3] = tested on: Human hung cancer cell line A549; experiment: as above; type: cell-based
From the text: Human hung cancer cell line A549—Table 3;

[4] = tested on: Human gastric cancer cell line MKN28; experiment: as above; type: cell-based
From the text: Human gastric cancer cell line MKN28—Table 4;

[5] = tested on: Human leukemia cell line HL60; experiment: as above; type: cell-based
From the text: Human leukemia cell line HL60—Table 8.

[6] = tested on: Murine melanoma cell line B 16; experiment: Solid tumor transplant model, baicalein and baicalin; type: in vivo; conditions: B16 mice, day 1-10; for Final Tumor WT. (g) Mean ± SD / Tumor Growth Inhibition %: day 15
Procedure: C57BL/6 female mice (weight approximately 20 g) were used in this study. Murine melanoma cell line B 16 cells, 2×10^6 tumor cells were implanted s.c. into the armpit of each mice after two passenges in vitro cultured. On the next day after implantation, mice were randomly grouped at 10 per group and received 0.1 ml/10 g weight of the drugs. […] The number of mice of each group was 10. Mice were weighed before and post the treatment. Animals were killed on day 15, and the tumors were removed and weighted.

L1210 cells = type: in vivo; conditions: day 1-10; for ILS(%) increase of life span: L1210 mice
Procedure: L1210 cells on the growth phase were injected at 1×10^5 cells via I.P. into BDF1 female mice (weight approximately 20 g). The next day of implantation, mice were grouped, and received an injection of 0.1 ml/10 g weight of the drug. […] The number of mice of each group was 10. Mice were weighed before and after the treatment. Survival time of each mouse was recorded. The results of changes in increasing of life span of mice were used in assessment of response. The increase of life span was determined as; increase of life span rate=(median survival time of treated animals/median survival time of control animals−1)×100%, the data were analyzed by t-test.

[7] = tested on: Human esophagus cancer cell line TE2
[8] = tested on: Human breast cancer cell line MCF-7
[9] = tested on: Human prostate cancer cell line PC3

O=C(O)[C@H]1O[C@@H](Oc2cc3oc(-c4ccccc4)cc(=O)c3c(O)c2O)[C@H](O)[C@@H](O)[C@@H]1O [BG, baicalin]
Inhibition of cell growth (%) ([1]; single dose 2.5 μm): 16.63 ± 2%
Inhibition of cell growth (%) ([1]; single dose 5 μm): 16.8 ± 2%
Inhibition of cell growth (%) ([1]; single dose 10 μm): 34.93 ± 3.8%
Inhibition of cell growth (%) ([1]; single dose 20 μm): 50 ± 2.9%
Inhibition of cell growth (%) ([1]; single dose 40 μm): 86.69 ± 3%
Inhibition of cell growth (%) ([2]; single dose 2.5 μm): 17 ± 2%
Inhibition of cell growth (%) ([2]; single dose 5 μm): 20 ± 3.2%
Inhibition of cell growth (%) ([2]; single dose 10 μm): 27 ± 3%
Inhibition of cell growth (%) ([2]; single dose 20 μm): 33.75 ± 3%
Inhibition of cell growth (%) ([2]; single dose 40 μm): 90 ± 2%
Inhibition of cell growth (%) ([3]; single dose 2.5 μm): 9.8 ± 2%
Inhibition of cell growth (%) ([3]; single dose 5 μm): 17 ± 3%
Inhibition of cell growth (%) ([3]; single dose 10 μm): 30.58 ± 3.2%
Inhibition of cell growth (%) ([3]; single dose 20 μm): 53.58 ± 4%
Inhibition of cell growth (%) ([3]; single dose 40 μm): 92 ± 3%
Inhibition of cell growth (%) ([4]; single dose 2.5 μm): 5.2 ± 2%
Inhibition of cell growth (%) ([4]; single dose 5 μm): 12 ± 3%
Inhibition of cell growth (%) ([4]; single dose 10 μm): 30.2 ± 2.9%
Inhibition of cell growth (%) ([4]; single dose 20 μm): 62 ± 3.2%
Inhibition of cell growth (%) ([4]; single dose 40 μm): 85.22 ± 2%
Inhibition of cell growth (%) ([5]; single dose 2.5 μm): 5 ± 2%
Inhibition of cell growth (%) ([5]; single dose 5 μm): 8.6 ± 3%
Inhibition of cell growth (%) ([5]; single dose 10 μm): 21 ± 4%
Inhibition of cell growth (%) ([5]; single dose 20 μm): 45.1 ± 2.9%
Inhibition of cell growth (%) ([5]; single dose 40 μm): 82.7 ± 2.3%
Final Tumor WT. (g) Mean ± SD ([6]; BG 25 mg/kg i.p.): 1.81 ± 0.1 g
Tumor Growth Inhibition % ([6]; BG 25 mg/kg i.p.): 16.97%
Final Tumor WT. (g) Mean ± SD ([6]; BG 50 mg/kg i.p.): 1.77 ± 0.117 g
Tumor Growth Inhibition % ([6]; BG 50 mg/kg i.p.): 18.8%
Final Tumor WT. (g) Mean ± SD ([6]; BG 100 mg/kg i.p.): 1.51 ± 0.11 g
Tumor Growth Inhibition % ([6]; BG 100 mg/kg i.p.): 30.7%
Final Tumor WT. (g) Mean ± SD ([6]; BG 200 mg/kg i.p.): 1.28 ± 0.07 g
Tumor Growth Inhibition % ([6]; BG 200 mg/kg i.p.): 41.28%
Weight Change % ([6]; BG 25 mg/kg i.p.): <5%
Weight Change % ([6]; BG 50 mg/kg i.p.): <5%
Weight Change % ([6]; BG 100 mg/kg i.p.): <5%
Weight Change % ([6]; BG 200 mg/kg i.p.): <5%
Number of mice Surviving through 15 days/total number (L1210 cells; BG 25 mg/kg i.p.): 10/10
Number of mice Surviving through 15 days/total number (L1210 cells; BG 50 mg/kg i.p.): 10/10
Number of mice Surviving through 15 days/total number (L1210 cells; BG 100 mg/kg i.p.): 10/10
Number of mice Surviving through 15 days/total number (L1210 cells; BG 200 mg/kg i.p.): 10/10
ILS(%) increase of life span (L1210 cells; BG 25 mg/kg i.p.): 17.3%
ILS(%) increase of life span (L1210 cells; BG 50 mg/kg i.p.): 27.55%
ILS(%) increase of life span (L1210 cells; BG 100 mg/kg i.p.): 38.27%
ILS(%) increase of life span (L1210 cells; BG 200 mg/kg i.p.): 50%
Inhibition of cell growth (%) ([7]; single dose 2.5 μm): 6.2 ± 1.8%
Inhibition of cell growth (%) ([7]; single dose 10 μm): 28.2 ± 2.5%
Inhibition of cell growth (%) ([7]; single dose 20 μm): 49.8 ± 1.78%
Inhibition of cell growth (%) ([7]; single dose 40 μm): 72.7 ± 2.1%
Inhibition of cell growth (%) ([8]; single dose 2.5 μm): 0.5 ± 2.7%
Inhibition of cell growth (%) ([8]; single dose 5 μm): 10.2 ± 1%
Inhibition of cell growth (%) ([8]; single dose 10 μm): 48.02 ± 2%
Inhibition of cell growth (%) ([8]; single dose 20 μm): 60.35 ± 3%
Inhibition of cell growth (%) ([9]; single dose 2.5 μm): 1 ± 3%
Inhibition of cell growth (%) ([9]; single dose 5 μm): 17.9 ± 5%
Inhibition of cell growth (%) ([9]; single dose 10 μm): 47 ± 8%
Inhibition of cell growth (%) ([9]; single dose 20 μm): 62 ± 7%
Inhibition of cell growth (%) ([9]; single dose 40 μm): 88 ± 7%
